This note sets out measurements from PubChem BioAssay AID863 (NMMLSC, 2007).

SMILES strings stand for the structures. The source made the active and inactive calls. The rule behind the calls is not given here.

The target in this test is fMet-Leu-Phe receptor (Homo sapiens) (UniProt P21462). The test can be described thus: formyl peptide receptor 1 antagonism, calcium readout – U937 cells, fMLFF stimulus, Fluo4, flow cytometry, SAR follow-up (AID 863). To be noted: FPR-expressing U937 cells, fMLFF-induced Fluo4 calcium flux, 80 s, stronger effect = higher value, concentration not given here. For orientation: Flow cytometry measures light scatter and fluorescence of single cells or particles in a stream.
Sequence of fMet-Leu-Phe receptor (Homo sapiens) (P21462 whole entry, looked up): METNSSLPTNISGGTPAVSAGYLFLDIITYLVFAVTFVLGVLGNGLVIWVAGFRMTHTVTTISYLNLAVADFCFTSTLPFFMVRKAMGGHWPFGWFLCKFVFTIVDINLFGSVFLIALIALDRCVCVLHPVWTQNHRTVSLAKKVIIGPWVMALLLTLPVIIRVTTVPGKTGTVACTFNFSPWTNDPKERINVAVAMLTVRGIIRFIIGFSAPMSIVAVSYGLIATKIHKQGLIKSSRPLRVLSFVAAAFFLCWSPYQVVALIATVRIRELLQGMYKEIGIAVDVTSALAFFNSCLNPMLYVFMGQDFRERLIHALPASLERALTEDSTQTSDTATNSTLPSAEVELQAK
One may read the inhibition as the change of the read-out against control, counted positive when it falls. For the compound `O=C(C1=C(O)C(=O)N(CCc2ccccc2)C1c1ccc(Cl)cc1)c1cccs1` (centres undefined), the inhibition is 81.3% (inactive).
To `Cc1nc2c(-c3ccc(Cl)cc3)c(C(F)(F)F)[nH]n2c(=O)c1Cc1ccccc1` belongs 98.1%.
The value for `COc1ccc(C2C(C(=O)c3cccs3)=C(O)C(=O)N2CCCn2ccnc2)cc1` (centres undefined) was 96.9%; that for `COc1ccc(C2/C(=C(\O)c3ccccc3)C(=O)C(=O)N2CCCn2ccnc2)c(OC)c1` (centres undefined) was 99.5%; that for `O=C(Oc1ccc2c(=O)c(-c3ccccc3Cl)c(C(F)(F)F)oc2c1)c1cccs1` was 185%.
As for `COc1ccc(C2C(C(=O)c3ccco3)=C(O)C(=O)N2CCN2CCOCC2)c(OC)c1` (centres undefined), the inhibition is 58.1% (inactive).
For the compound `COc1ccc(-c2c(C(F)(F)F)oc3cc(OC(=O)c4cccnc4)ccc3c2=O)cc1OC`, the inhibition was 85.6% (inactive).
The value for `CCCCCCN1C(=O)C(=O)/C(=C(\O)c2ccccc2)C1c1ccc(O)c(OC)c1` (centres undefined) was 44% (inactive); that for `COc1ccccc1-c1c(C(F)(F)F)oc2cc(OC(=O)c3ccco3)ccc2c1=O` was 98.8%.
In the case of `COc1ccc(C2C(C(=O)c3cccs3)=C(O)C(=O)N2CCN2CCOCC2)c(OC)c1` (centres undefined), the inhibition is 72.3% (inactive).
On to `COCCN1C(=O)C(=O)/C(=C(/O)c2ccccc2)C1c1cc(OC)ccc1OC` (centres undefined), for which the inhibition was 97.5%.
For the compound `COc1ccc(OC)c(C2/C(=C(\O)c3ccccc3)C(=O)C(=O)N2c2cccnc2)c1` (centres undefined), the inhibition is 40.7% (inactive).
To `COc1ccc(-c2c(C(F)(F)F)oc3cc(OC(=O)c4ccco4)ccc3c2=O)cc1OC` belongs 93%; to `CCc1cc2c(=O)c(-c3nc4ccccc4n3C)c(C)oc2cc1OC(C)=O`, 101%.
